Results published in patent publication US8785457B2 (Cellzome Limited, priority 2009, dated 2014).
Read-outs that look alike come from different tables or passages of the source.

How the values were obtained:
mTOR = biological target: T1, mTOR (Homo sapiens, UniProt P42345); experiment: mTOR kinobeads assay (competitive binding in Jurkat cell lysate, immunodetection); conditions: kinobeads assay
T1 construct: endogenous in cells; host or cells: Jurkat, clone E6-1 (ATCC TIB-152) cell lysate
Procedure, shortened: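 IC50 derived from dose-response curves of mTOR captured on immobilized phenylmorpholin-chromen beads, detected by antibody dot blot with infrared fluorescence.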

PI3K delta (PI3 Kd) = biological target: T2, PI3K delta (PI3 Kd) (Homo sapiens, UniProt O00329); experiment: kinobeads assay, PI3K delta; type: binding; conditions: kinobeads assay, read-out: Inhibition values (IC50) PI3Kd
T2 construct: endogenous in cells; host or cells: Jurkat, clone E6-1 (ATCC TIB-152) cell lysate
Procedure, shortened: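 Competitive binding in Jurkat cell lysate (5 mg/mL protein) against beads carrying an immobilized phenylmorpholin-chromen ligand, in DP buffer pH 7.4 with NP40, DTT and NaF. Bead-bound kinases were eluted and quantified by antibody dot blot with infrared detection, and IC50 was taken from dose-response curves of a 1:3 dilution series.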

[1] = Table 4, read-out: Inhibition values (IC50) mTor
[2] = Table 6, read-out: Inhibition values (IC50) mTOR

T2 sequence (O00329 whole entry): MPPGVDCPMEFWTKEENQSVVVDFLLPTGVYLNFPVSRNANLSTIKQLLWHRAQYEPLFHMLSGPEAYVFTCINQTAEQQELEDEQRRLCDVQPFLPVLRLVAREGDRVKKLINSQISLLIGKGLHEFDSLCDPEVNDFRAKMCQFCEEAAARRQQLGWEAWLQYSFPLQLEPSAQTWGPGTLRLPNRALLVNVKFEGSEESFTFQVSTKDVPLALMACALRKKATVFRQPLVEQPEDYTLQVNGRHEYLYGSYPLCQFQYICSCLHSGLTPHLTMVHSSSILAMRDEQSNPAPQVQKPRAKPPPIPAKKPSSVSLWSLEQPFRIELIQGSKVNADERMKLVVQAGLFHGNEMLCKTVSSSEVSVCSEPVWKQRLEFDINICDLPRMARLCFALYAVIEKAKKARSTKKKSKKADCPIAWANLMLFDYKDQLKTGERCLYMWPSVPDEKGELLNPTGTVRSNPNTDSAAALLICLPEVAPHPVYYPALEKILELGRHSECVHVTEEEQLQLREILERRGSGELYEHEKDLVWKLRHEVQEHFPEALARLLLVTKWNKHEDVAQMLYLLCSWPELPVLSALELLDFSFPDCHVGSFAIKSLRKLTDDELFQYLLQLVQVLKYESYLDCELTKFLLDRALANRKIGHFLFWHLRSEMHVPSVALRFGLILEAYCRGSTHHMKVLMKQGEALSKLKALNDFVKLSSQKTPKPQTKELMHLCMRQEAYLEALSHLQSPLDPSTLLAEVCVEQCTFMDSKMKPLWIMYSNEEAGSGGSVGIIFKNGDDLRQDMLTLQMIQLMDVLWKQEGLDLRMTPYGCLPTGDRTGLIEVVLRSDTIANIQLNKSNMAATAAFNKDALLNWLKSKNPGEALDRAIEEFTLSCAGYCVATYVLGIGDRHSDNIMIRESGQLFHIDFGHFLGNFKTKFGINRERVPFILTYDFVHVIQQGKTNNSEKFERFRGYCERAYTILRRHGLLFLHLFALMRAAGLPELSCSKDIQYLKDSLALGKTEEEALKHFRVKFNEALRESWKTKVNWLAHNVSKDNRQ
T2 sequence (P27986 whole entry partner): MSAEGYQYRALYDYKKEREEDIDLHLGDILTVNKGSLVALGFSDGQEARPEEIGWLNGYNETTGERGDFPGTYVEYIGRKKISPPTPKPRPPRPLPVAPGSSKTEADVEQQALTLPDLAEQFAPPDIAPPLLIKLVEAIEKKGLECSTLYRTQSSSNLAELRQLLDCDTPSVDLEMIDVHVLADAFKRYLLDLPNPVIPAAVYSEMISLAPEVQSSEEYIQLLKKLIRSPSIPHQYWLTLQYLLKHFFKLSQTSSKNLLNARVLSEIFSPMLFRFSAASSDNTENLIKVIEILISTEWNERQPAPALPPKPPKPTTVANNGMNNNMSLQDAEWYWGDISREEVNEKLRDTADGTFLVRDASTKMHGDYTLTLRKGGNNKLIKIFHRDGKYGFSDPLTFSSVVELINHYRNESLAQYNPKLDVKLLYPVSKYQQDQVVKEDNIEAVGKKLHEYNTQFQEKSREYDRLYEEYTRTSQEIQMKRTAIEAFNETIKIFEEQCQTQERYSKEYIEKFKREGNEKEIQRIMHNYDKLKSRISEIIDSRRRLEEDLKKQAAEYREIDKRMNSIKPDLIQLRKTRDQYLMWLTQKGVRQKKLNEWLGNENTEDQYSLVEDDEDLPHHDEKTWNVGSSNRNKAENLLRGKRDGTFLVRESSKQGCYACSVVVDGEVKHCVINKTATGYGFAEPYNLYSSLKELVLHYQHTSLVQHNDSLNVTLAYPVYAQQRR

SMILES | IC50 (mTOR; [1]) | IC50 (mTOR; [2]) | IC50 (PI3K delta (PI3 Kd); Table 4) | IC50 (PI3K delta (PI3 Kd); Table 6)
CCNC(=O)Nc1ccc(-c2nc3c(c(N4CCOC[C@@H]4C)n2)CCN(C(=O)C(C)(C)C)C3)cc1 [Example 58, (S)-1-ethyl-3-(4-(4-(3-methylmorpholino)-7-pivaloyl-5,6,7,8-tetrahydropyrido[3,4-d]pyrimidin-2-yl)phenyl)urea] | < 100 nM | < 100 nM | > 10000 nM | > 10000 nM
CCNC(=O)Nc1ccc(-c2nc3c(c(N4CCOC[C@@H]4C)n2)CN(C(C)C)C3)cc1 [Example 74, (S)-1-ethyl-3-(4-(6-isopropyl-4-(3-methylmorpholino)-6,7-dihydro-5H-pyrrolo[3,4-d]pyrimidin-2-yl)phenyl)urea] |  | < 100 nM |  | > 10000 nM
C[C@H]1COCCN1c1nc(-c2ccc(NC(=O)NC3CC3)cc2)nc2c1CCN(C(=O)C1CC1)C2 [Example 60, (S)-1-(4-(7-(cyclopropanecarbonyl)-4-(3-methylmorpholino)-5,6,7,8-tetrahydropyrido[3,4-d]pyrimidin-2-yl)phenyl)-3-cyclopropylurea] | < 100 nM | < 100 nM | > 10000 nM | > 10000 nM
CCNC(=O)Nc1ccc(-c2nc3c(c(N4CCOC[C@@H]4C)n2)CN(CC(F)(F)F)C3)cc1 [Example 68, (S)-1-ethyl-3-(4-(4-(3-methylmorpholino)-6-(2,2,2-trifluoroethyl)-6,7-dihydro-5H-pyrrolo[3,4-d]pyrimidin-2-yl)phenyl)urea] |  | 100 to 1000 nM |  | > 10000 nM
C[C@H]1COCCN1c1nc(-c2ccc(NC(=O)Nc3cccc(O)n3)cc2)nc2c1CN(C)C2 [Example 80, (S)-1-(6-hydroxypyridin-2-yl)-3-(4-(6-methyl-4-(3-methylmorpholino)-6,7-dihydro-5H-pyrrolo[3,4-d]pyrimidin-2-yl)phenyl)urea] |  | < 100 nM |  | > 10000 nM
Cc1cc(NC(=O)Nc2ccc(-c3nc4c(c(N5CCOC[C@@H]5C)n3)CN(C)C4)cc2)no1 [Example 72, (S)-1-(4-(6-methyl-4-(3-methylmorpholino)-6,7-dihydro-5H-pyrrolo[3,4-d]pyrimidin-2-yl)phenyl)-3-(5-methylisoxazol-3-yl)urea] |  | 100 to 1000 nM |  | > 10000 nM
CCNC(=O)Nc1ccc(-c2nc3c(c(N4CCOC[C@@H]4C)n2)CN(CC(C)(C)C)C3)cc1 [Example 67, (S)-1-ethyl-3-(4-(4-(3-methylmorpholino)-6-neopentyl-6,7-dihydro-5H-pyrrolo[3,4-d]pyrimidin-2-yl)phenyl)urea] |  | 100 to 1000 nM |  | > 10000 nM
CCNC(=O)Nc1ccc(-c2nc3c(c(N4CCOC[C@@H]4C)n2)CCN(CC(C)C)C3)cc1.O=CO [Example 76, (S)-1-ethyl-3-(4-(7-isobutyl-4-(3-methylmorpholino)-5,6,7,8-tetrahydropyrido[3,4-d]pyrimidin-2-yl)phenyl)urea formate] |  | < 100 nM |  | > 10000 nM
CCNC(=O)Nc1ccc(-c2nc3c(c(N4CCOC[C@@H]4C)n2)CN(C(=O)OC(C)(C)C)C3)cc1 [Example 1, (S)-tert-butyl 2-(4-(3-ethylureido)phenyl)-4-(3-methylmorpholino)-5H-pyrrolo[3,4-d]pyrimidine-6(7H)-carboxylate] | 100 to 1000 nM | 100 to 1000 nM | > 10000 nM | > 10000 nM
CCNC(=O)Nc1ccc(-c2nc3c(c(N4CCOC[C@@H]4C)n2)CCN(C(=O)OCC)C3)cc1 [Example 77, (S)-ethyl 2-(4-(3-ethylureido)phenyl)-4-(3-methylmorpholino)-5,6-dihydropyrido[3,4-d]pyrimidine-7(8H)-carboxylate] |  | < 100 nM |  | > 10000 nM
CCNC(=O)Nc1ccc(-c2nc3c(c(N4CCOC[C@@H]4C)n2)CCN(C(=O)OC)C3)cc1 [Example 81, (S)-methyl 2-(4-(3-ethylureido)phenyl)-4-(3-methylmorpholino)-5,6-dihydropyrido[3,4-d]pyrimidine-7(8H)-carboxylate] |  | < 100 nM |  | > 10000 nM
CCNC(=O)Nc1ccc(-c2nc3c(c(N4CCOCC4)n2)CN(C(=O)OCC)C3)cc1 [Example 70, Ethyl 2-(4-(3-ethylureido)phenyl)-4-morpholino-5H-pyrrolo[3,4-d]pyrimidine-6(7H)-carboxylate] |  | < 100 nM |  | 1000 to 10000 nM
CC(C)C(=O)N1CCc2c(nc(-c3ccc(NC(=O)NC4CC4)cc3)nc2N2CCOC[C@@H]2C)C1 [Example 61, (S)-1-cyclopropyl-3-(4-(7-isobutyryl-4-(3-methylmorpholino)-5,6,7,8-tetrahydropyrido[3,4-d]pyrimidin-2-yl)phenyl)urea] | < 100 nM | < 100 nM | > 10000 nM | > 10000 nM

The remaining lines, values ahead:

IC50 (mTOR; [1]) | IC50 (mTOR; [2]) | IC50 (PI3K delta (PI3 Kd); Table 4) | IC50 (PI3K delta (PI3 Kd); Table 6) | SMILES
 | 100 to 1000 nM |  | > 10000 nM | CCNC(=O)Nc1ccc(-c2nc3c(c(N4CCOC[C@@H]4C)n2)CN(C)C3)cc1F [Example 85, (S)-1-ethyl-3-(2-fluoro-4-(6-methyl-4-(3-methylmorpholino)-6,7-dihydro-5H-pyrrolo[3,4-d]pyrimidin-2-yl)phenyl)urea]
 | 100 to 1000 nM |  | > 10000 nM | CCNC(=O)Nc1ccc(-c2nc3c(c(N4CCOCC4)n2)CN(C(=O)C(C)(C)C)C3)cc1 [Example 100, 1-ethyl-3-(4-(4-morpholino-6-pivaloyl-6,7-dihydro-5H-pyrrolo[3,4-d]pyrimidin-2-yl)phenyl)urea]
 | 100 to 1000 nM |  | > 10000 nM | CCNC(=O)Nc1ccc(-c2nc3c(c(N4CCOCC4)n2)CCN(C(=O)NCC)C3)cc1 [Example 94, N-ethyl-2-(4-(3-ethylureido)phenyl)-4-morpholino-5,6-dihydropyrido[3,4-d]pyrimidine-7(8H)-carboxamide]
 | 100 to 1000 nM |  | > 10000 nM | CCNC(=O)Nc1ccc(-c2nc3c(c(N4CCOC[C@@H]4C)n2)CN(C(=O)OCC)CC3)cc1 [Example 107, (S)-ethyl 2-(4-(3-ethylureido)phenyl)-4-(3-methylmorpholino)-7,8-dihydropyrido[4,3-d]pyrimidine-6(5H)-carboxylate]
 | < 100 nM |  | 1000 to 10000 nM | CCNC(=O)Nc1ccc(-c2nc3c(c(N4CCOCC4)n2)CCN(C(C)=O)C3)cc1 [Example 97, 1-(4-(7-acetyl-4-morpholino-5,6,7,8-tetrahydropyrido[3,4-d]pyrimidin-2-yl)phenyl)-3-ethylurea]
 | 100 to 1000 nM |  | > 10000 nM | CCNC(=O)Nc1ccc(-c2nc3c(c(N4CCOC[C@@H]4C)n2)CN(C2CCN(C(=O)OC)CC2)C3)cc1F [Example 122, (S)-methyl 4-(2-(4-(3-ethylureido)-3-fluorophenyl)-4-(3-methylmorpholino)-5H-pyrrolo[3,4-d]pyrimidin-6(7H)-yl)piperidine-1-carboxylate]
 | 100 to 1000 nM |  | > 10000 nM | CCNC(=O)Nc1cc(F)c(-c2nc3c(c(N4CCOC[C@@H]4C)n2)CCN(C)C3)cc1F [Example 108, (S)-1-(2,5-difluoro-4-(7-methyl-4-(3-methylmorpholino)-5,6,7,8-tetrahydropyrido[3,4-d]pyrimidin-2-yl)phenyl)-3-ethylurea]
 | < 100 nM |  | > 10000 nM | CCOC(=O)N1Cc2nc(-c3ccc(NC(=O)Nc4ccncc4)cc3)nc(N3CCOC[C@@H]3C)c2C1 [Example 121, (S)-ethyl 4-(3-methylmorpholino)-2-(4-(3-(pyridin-4-yl)ureido)phenyl)-5H-pyrrolo[3,4-d]pyrimidine-6(7H)-carboxylate]
 | < 100 nM |  | > 10000 nM | COC(=O)N1Cc2nc(-c3ccc(NC(=O)NC4CC4)cc3)nc(N3CCOC[C@@H]3C)c2C1 [Example 86, (S)-methyl 2-(4-(3-cyclopropylureido)phenyl)-4-(3-methylmorpholino)-5H-pyrrolo[3,4-d]pyrimidine-6(7H)-carboxylate]
 | 100 to 1000 nM |  | > 10000 nM | CCNC(=O)Nc1ncc(-c2nc3c(c(N4CCOC[C@@H]4C)n2)CCN(C)C3)s1 [Example 106, (S)-1-ethyl-3-(5-(7-methyl-4-(3-methylmorpholino)-5,6,7,8-tetrahydropyrido[3,4-d]pyrimidin-2-yl)thiazol-2-yl)urea]
 | 100 to 1000 nM |  | > 10000 nM | CCNC(=O)Nc1ccc(-c2nc3c(c(N4CCOCC4)n2)CCN(C)C3)cc1 [Example 93, 1-ethyl-3-(4-(7-methyl-4-morpholino-5,6,7,8-tetrahydropyrido[3,4-d]pyrimidin-2-yl)phenyl)urea]
 | < 100 nM |  | > 10000 nM | CCNC(=O)Nc1ccc(-c2nc3c(c(N4CCOC[C@@H]4C)n2)CN(C(=O)OC)C3)cc1 [Example 89, (S)-methyl 2-(4-(3-ethylureido)phenyl)-4-(3-methylmorpholino)-5H-pyrrolo[3,4-d]pyrimidine-6(7H)-carboxylate]
 | 100 to 1000 nM |  | > 10000 nM | CCOC(=O)N1Cc2nc(-c3ccc(NC(=O)NC4CC4)cc3F)nc(N3CCOC[C@@H]3C)c2C1 [Example 131, (S)-ethyl 2-(4-(3-cyclopropylureido)-2-fluorophenyl)-4-(3-methylmorpholino)-5H-pyrrolo[3,4-d]pyrimidine-6(7H)-carboxylate]
 | 100 to 1000 nM |  | > 10000 nM | CCNC(=O)Nc1ccc(-c2nc3c(c(N4CCOC[C@@H]4C)n2)CN(C(=O)OCC)C3)c(F)c1 [Example 113, (S)-ethyl-2-(4-(3-ethylureido)-2-fluorophenyl)-4-(3-methylmorpholino)-5H-pyrrolo[3,4-d]pyrimidine-6(7H)-carboxylate]
 | < 100 nM |  | > 10000 nM | CCNC(=O)Nc1ccc(-c2nc3c(c(N4CCOC[C@@H]4C)n2)CCN(C(=O)Cc2cccnc2)C3)cc1 [Example 91, (S)-1-ethyl-3-(4-(4-(3-methylmorpholino)-7-(2-(pyridin-3-yl)acetyl)-5,6,7,8-tetrahydropyrido[3,4-d]pyrimidin-2-yl)phenyl)urea]
